In article PMC8080777, “Discovery, optimization, and evaluation of non-bile acid FXR/TGR5 dual agonists” (Scientific Reports, 2021):

Target: T1, FXR (Homo sapiens, UniProt Q96RI1)
T1 construct: host or cells: CHO cells
T1 sequence (Q96RI1 1-486): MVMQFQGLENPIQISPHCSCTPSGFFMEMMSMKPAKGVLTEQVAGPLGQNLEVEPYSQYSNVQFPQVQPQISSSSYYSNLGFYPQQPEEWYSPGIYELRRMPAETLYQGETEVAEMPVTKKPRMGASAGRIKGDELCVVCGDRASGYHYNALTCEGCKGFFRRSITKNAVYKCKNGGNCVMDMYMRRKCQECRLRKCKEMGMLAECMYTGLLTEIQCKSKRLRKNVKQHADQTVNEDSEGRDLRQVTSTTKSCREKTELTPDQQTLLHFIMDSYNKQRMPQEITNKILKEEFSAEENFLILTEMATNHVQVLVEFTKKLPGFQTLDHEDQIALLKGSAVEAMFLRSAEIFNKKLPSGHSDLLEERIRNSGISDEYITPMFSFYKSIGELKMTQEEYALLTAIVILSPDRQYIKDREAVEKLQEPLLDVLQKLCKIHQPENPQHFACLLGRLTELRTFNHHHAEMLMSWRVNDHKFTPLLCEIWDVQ
Test: CHO cell-based FXR luciferase reporter assay (Indigo Biosciences)
Details: for EC50: 4 parameter logistic fit; for Emax: CHO

Structure (SMILES) | FXR Efficacy (%) (0.1 µM) (% vs OCA 1 µM as 100%) | FXR Efficacy (%) (1 µM) (% vs OCA 1 µM as 100%) | FXR Efficacy (%) (10 µM) (10 µM, % vs OCA 1 µM as 100%) | FXR agonist activity (in words) | EC50 | Emax
COC(=O)/C=C/c1cccc(N(Cc2ccc(-c3ccc(N(C)C)cc3)cc2)C(=O)C2CCCCC2)c1 [Compound 7, Fexaramine, reference compound] | 12.8% | 96.6% | 130.9% |  |  | 
COc1cc(Cl)cc(N(CC23CCC(c4ccc(OC)c(C#N)c4)(CC2)CC3)C(=O)c2ccncc2C)c1 [Compound 20p] | 57.1% | 98.8% |  | strong dual agonist potencies | 190 nM | 28%
COc1ccc(C23CCC(CN(C(=O)c4ccncc4C)c4cc(Cl)cc(Cl)c4)(CC2)CC3)cc1C#N [Compound 20q] | 85.7% | 79.6% |  | strong dual agonist potencies | 79 nM | 33%
